Laboratory results from PMC9150124, “Design of a Potent, Selective, and Brain-Penetrant Inhibitor of Wnt-Deactivating Enzyme Notum by Optimization of a Crystallographic Fragment Hit” (Journal of Medicinal Chemistry, 2022).
≈ marks a conversion by molar mass, not a printed value. Read-outs that look alike come from different tables or passages of the source.

Assays:
[1] = Stability in human liver microsomes; assay type: in vitro ADME; conditions: for half-life: human, liver microsomes, read-out: HLM Stability t1/2
in vivo = experiment: in vivo; set-up: species or system mouse
Experimental: Mouse pharmacokinetic (PK) data was generated at Charles River Laboratories (Groningen, Netherlands) and GVK
Biosciences (Hyderabad, India). Rat PK was performed by WuXi AppTec (Shanghai, China).
Animal Testing Declaration: All in life phase studies were conducted in accordance with local Ethics Review
process. See, statements from each company.

nAChR(a4/b2) = target: T1, nAChR(a4/b2) (Homo sapiens, UniProt P17787+P43681); experiment: Safety47 nAChR(a4/b2) antagonist assay; assay type: cell-based
T1 construct: Eurofins (DiscoverX Safety47)
Experimental: (§1) Screening for off-target pharmacology across multiple drug target classes was performed in the DiscoverX Safety47 panel as the SAFETYscan E/IC50 ELECT service by Eurofins (San Diego CA, U.S.A.). Assay information and data are presented in the Supporting Information.
Safety pharmacology studies
Screening for off-target pharmacology across multiple drug target classes was performed in the DiscoverX Safety47™ panel as the SAFETYscan E/IC50 ELECT service by eurofins (San Diego CA, U.S.A.). The assays were performed utilizing the PathHunter enzyme fragment complementation (EFC) technology, FLIPR®-based cellular screening assays, KINOMEscan kinase binding assays, and a variety of enzymatic assays (78 assays).

in vitro = conditions: dog
MDR1 (P-gp) = experiment: in vitro; conditions: dog
P-gp (MDR1) = experiment: in vitro; conditions: dog
CYP3A4 = CYP3A4 (Homo sapiens, UniProt P08684); experiment: CYP450 inhibition in HLM
hERG = target: T2, hERG (Homo sapiens, UniProt Q12809); experiment: Safety47 hERG assay; assay type: cell-based
T2 construct: Eurofins (DiscoverX Safety47)
Experimental: as §1

[2] = Solubility in dose formulations (cosolvents); assay type: physicochemical
[3] = Brain tissue binding, rapid equilibrium dialysis; assay type: in vitro ADME, rat
Experimental: (§2) Method: rapid equilibrium dialysis.
Test System Mouse Brain Homogenate 10% w/v in PBS
Incubation Time 5 h (mouse) or 4 h (rat)
No. of Replicates Two (mouse) or three (rat)
Buffer Phosphate buffer saline, pH 7.4
% Unbound in brain % Bound in brain %
Compound Species / Matrix homogenate SD homogenate Recovery

[4] = Metabolic stability in dog hepatocytes
Wnt signaling = experiment: TCF/LEF reporter (Luciferase) assay in the absence of Notum; assay type: cell-based; conditions: up to 10 μM; n = 4
Experimental: Figure S10. Notum TCF/LEF reporter (Luciferase) data with WNT3A (100 ng/mL) in the absence of Notum.
Examples are from different
Additional inhibition -concentration curves for compounds 6-9 will be made available upon reasonable request.

[5] = Plasma protein binding, rapid equilibrium dialysis; conditions: for fraction unbound at 4 h, 2 µM: plasma
Experimental: G. Plasma protein binding (PPB):
as §2
Test System Mouse Plasma (K2EDTA)
Test compound concentration 10 µM (mouse) or 2 µM (rat)

[6] = male C57BL6 mice, i.v. 1.0 mg/kg
[7] = MDCK-MDR1, MDCK-MDR1 AB Papp, apical to basal
[8] = MDCK-MDR1, MDCK-MDR1 BA Papp, basal to apical

Sequence of CYP3A4 (P08684 whole entry): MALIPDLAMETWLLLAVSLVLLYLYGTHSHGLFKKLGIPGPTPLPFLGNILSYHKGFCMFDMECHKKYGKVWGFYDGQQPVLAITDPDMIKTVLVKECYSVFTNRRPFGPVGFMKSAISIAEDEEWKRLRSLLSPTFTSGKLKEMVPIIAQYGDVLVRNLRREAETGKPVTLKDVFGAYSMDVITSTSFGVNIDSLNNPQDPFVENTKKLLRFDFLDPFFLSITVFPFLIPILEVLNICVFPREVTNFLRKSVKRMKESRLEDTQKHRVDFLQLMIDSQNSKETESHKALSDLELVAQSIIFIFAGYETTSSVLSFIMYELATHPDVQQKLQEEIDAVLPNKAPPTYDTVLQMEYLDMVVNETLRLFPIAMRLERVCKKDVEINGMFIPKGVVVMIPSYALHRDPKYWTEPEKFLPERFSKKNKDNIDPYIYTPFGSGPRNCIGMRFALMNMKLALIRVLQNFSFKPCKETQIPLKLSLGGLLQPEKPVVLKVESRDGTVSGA
T1 sequence (P43681 29-627 limits assumed): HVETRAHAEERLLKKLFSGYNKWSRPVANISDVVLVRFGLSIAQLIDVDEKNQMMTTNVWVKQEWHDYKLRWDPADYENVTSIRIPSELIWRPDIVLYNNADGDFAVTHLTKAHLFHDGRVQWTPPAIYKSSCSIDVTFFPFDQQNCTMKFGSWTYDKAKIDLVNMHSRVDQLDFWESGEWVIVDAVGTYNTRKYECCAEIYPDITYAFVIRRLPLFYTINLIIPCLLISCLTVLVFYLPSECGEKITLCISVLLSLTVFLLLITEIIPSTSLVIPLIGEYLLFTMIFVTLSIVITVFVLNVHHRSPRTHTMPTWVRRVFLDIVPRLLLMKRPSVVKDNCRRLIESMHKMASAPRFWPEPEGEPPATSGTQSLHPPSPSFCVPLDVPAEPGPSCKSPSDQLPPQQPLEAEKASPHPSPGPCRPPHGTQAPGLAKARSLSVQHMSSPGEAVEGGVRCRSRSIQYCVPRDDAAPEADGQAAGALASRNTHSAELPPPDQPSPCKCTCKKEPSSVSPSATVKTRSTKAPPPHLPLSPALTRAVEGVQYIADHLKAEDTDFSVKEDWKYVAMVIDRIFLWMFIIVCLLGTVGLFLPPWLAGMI
T1 sequence (P17787 26-502): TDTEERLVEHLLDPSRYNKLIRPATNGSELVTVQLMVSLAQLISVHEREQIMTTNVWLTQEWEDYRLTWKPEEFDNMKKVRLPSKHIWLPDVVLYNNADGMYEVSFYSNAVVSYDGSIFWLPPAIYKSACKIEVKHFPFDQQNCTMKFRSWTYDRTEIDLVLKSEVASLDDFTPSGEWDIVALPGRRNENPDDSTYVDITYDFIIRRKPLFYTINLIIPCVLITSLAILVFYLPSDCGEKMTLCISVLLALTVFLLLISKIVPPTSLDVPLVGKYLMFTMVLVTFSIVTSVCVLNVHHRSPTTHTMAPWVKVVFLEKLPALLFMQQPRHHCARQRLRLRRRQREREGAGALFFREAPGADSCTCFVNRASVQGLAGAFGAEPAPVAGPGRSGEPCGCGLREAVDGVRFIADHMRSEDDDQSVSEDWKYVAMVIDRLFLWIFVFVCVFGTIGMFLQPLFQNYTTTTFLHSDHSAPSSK
T2 sequence (Q12809 whole entry): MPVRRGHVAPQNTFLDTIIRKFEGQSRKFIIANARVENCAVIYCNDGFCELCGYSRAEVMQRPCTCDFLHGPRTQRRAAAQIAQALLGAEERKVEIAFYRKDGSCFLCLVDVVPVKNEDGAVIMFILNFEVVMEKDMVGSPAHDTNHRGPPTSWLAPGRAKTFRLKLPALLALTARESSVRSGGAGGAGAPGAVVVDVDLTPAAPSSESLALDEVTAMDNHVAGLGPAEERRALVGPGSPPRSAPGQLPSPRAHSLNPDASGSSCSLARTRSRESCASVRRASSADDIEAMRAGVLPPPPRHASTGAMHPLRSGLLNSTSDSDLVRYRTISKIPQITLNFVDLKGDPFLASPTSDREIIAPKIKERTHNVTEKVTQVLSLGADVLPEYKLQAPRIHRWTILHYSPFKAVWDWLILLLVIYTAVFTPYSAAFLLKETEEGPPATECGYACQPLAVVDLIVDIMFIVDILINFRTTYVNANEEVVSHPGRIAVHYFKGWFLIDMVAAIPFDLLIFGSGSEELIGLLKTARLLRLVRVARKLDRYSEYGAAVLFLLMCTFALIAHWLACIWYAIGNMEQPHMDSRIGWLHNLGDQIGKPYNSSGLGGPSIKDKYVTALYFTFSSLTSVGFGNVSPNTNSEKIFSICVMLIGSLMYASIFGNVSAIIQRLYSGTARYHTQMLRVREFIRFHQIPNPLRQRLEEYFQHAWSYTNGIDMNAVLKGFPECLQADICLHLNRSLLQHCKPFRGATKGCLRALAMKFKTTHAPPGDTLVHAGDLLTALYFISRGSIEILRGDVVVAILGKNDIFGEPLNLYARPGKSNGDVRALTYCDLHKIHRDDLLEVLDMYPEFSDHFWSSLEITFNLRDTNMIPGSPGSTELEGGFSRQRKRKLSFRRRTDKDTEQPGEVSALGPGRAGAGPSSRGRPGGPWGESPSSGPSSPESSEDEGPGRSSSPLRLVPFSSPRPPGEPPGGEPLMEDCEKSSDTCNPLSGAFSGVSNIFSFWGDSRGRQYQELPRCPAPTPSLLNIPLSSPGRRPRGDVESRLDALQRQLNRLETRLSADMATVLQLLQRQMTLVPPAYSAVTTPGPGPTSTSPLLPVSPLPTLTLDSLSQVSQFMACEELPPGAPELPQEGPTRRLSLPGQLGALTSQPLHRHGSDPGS

FC(F)(F)c1c(Cl)ccc(-n2ccnn2)c1Cl [8l, 1-(2,4-Dichloro-3-(trifluoromethyl)phenyl)-1H-1,2,3-triazole]
HLM Cli [1]: 1.5 μL/min/mg protein
Liver microsome stability Cli, HLM ([1]; additional study (Table 5)): < 9.6 μL/min/mg protein
half-life ([1]; Table S4): 2 h
half-life ([1]; Table S8): > 2.42 h
CL (in vivo; [6]): 10.4 mL/min/kg
Vdss (in vivo; [6]): 2.0 L/kg
AUC(0-inf) (in vivo; mouse, 2x30 mg/kg po, plasma): 83400 ng·h/mL
AUC(0-t) (in vivo; mouse, 2x30 mg/kg po, plasma): 82400 ng·h/mL
half-life (in vivo; mouse, 2x30 mg/kg po, plasma): 2.97 h
Tmax (in vivo; mouse, 2x30 mg/kg po, plasma, read-out: Tmax): 9.5 h
concentration at 10 h (in vivo; mouse, brain, po, mouse 2x30 mg/kg po, read-out: Brain concentration, individual animal): 7250 ng/g
Fo (in vivo; mouse, p.o. 10 mg/kg): 66%
brain Cmax (free drug) (in vivo; mouse, p.o. 10 mg/kg): ≈ 300 nM
Tmax (in vivo; mouse, p.o. 10 mg/kg, brain): 1.0 h
t1/2 (in vivo; mouse, p.o. 10 mg/kg, brain): 2.2 h
time brain levels maintained above 100 nM (in vivo; mouse, p.o. 10 mg/kg, free drug): ~4 h
Tmax (in vivo; mouse, p.o. 10 mg/kg, plasma): 0.5 h
concentration at 0.5 h (in vivo; mouse, plasma, po, mouse 2x30 mg/kg po, 0.5 hr, read-out: Plasma concentration, individual animal): 5.09 µg/mL
concentration at 1 h (in vivo; mouse, plasma, po, mouse 2x30 mg/kg po, 1 hr, read-out: Plasma concentration, individual animal): 4.92 µg/mL
concentration at 2 h (in vivo; mouse, plasma, po, mouse 2x30 mg/kg po, 2 hr, read-out: Plasma concentration, individual animal): 4 µg/mL
concentration at 4 h (in vivo; mouse, plasma, po, mouse 2x30 mg/kg po, 4 hr, read-out: Plasma concentration, individual animal): 3.18 µg/mL
concentration at 9 h (in vivo; mouse, plasma, po, mouse 2x30 mg/kg po, 9 hr, read-out: Plasma concentration, individual animal): 0.645 µg/mL
concentration at 9.25 h (in vivo; mouse, plasma, po, mouse 2x30 mg/kg po, 9.25 hr, read-out: Plasma concentration, individual animal): 5.94 µg/mL
concentration at 9.5 h (in vivo; mouse, plasma, po, mouse 2x30 mg/kg po, 9.5 hr, read-out: Plasma concentration, individual animal): 7.57 µg/mL
concentration at 10 h (in vivo; mouse, plasma, po, mouse 2x30 mg/kg po, read-out: Plasma concentration, individual animal): 6.27 µg/mL
concentration at 11 h (in vivo; mouse, plasma, po, mouse 2x30 mg/kg po, 11 hr, read-out: Plasma concentration, individual animal): 6.85 µg/mL
IC50 (nAChR(a4/b2); Figure S14, read-out: nAChR(a4/b2) antagonist RC50): 10.2 µM
IC50 (nAChR(a4/b2); read-out: nAChR(a4/b2) IC50): 10 µM
Papp (in vitro; [7]): 31 ×10⁻⁶ cm/s
Papp (in vitro; [8]): 39 ×10⁻⁶ cm/s
recovery (MDR1 (P-gp); MDCK-MDR1, MDR1-MDCKII A to B % Recovery): 85.1%
recovery (MDR1 (P-gp); MDCK-MDR1, MDR1-MDCKII B to A % Recovery): 90.5%
Papp (P-gp (MDR1); [7]): 31.4 ×10⁻⁶ cm/s
Papp (P-gp (MDR1); [8]): 39.2 ×10⁻⁶ cm/s
IC50 (CYP3A4; read-out: CYP inhibition IC50, 3A4(mid.), HLM, midazolam): > 50 µM
IC50 (CYP3A4; read-out: CYP inhibition IC50, 3A4(test.), HLM, testosterone): > 50 µM
IC50 (CYP3A4; read-out: IC50 CYP3A4/Midazolam, (+)NADPH pre-incubation): > 50 µM
IC50 (CYP3A4; read-out: IC50 CYP3A4/Midazolam, (-)NADPH pre-incubation): > 50 µM
IC50 (CYP3A4; read-out: IC50 CYP3A4/Testosterone, (+)NADPH pre-incubation): > 50 µM
IC50 (CYP3A4; read-out: IC50 CYP3A4/Testosterone, (-)NADPH pre-incubation): > 50 µM
IC50 (hERG): > 30 µM
solubility ([2]; 2% DMSO in PBS (with 10% solutol v/v), read-out: Solubility): 3000 µg/mL (≈ 10.6 mM)
Mean Concentration of dose formulation ([2]; 20% w/v HPßCD in Water): 1000 µg/mL
Mean Concentration of dose formulation ([2]; DMSO (2%v/v) + 10% v/v HPßCD in WFI (98% v/v/)): 1020 µg/mL
Mean Concentration of dose formulation ([2]; DMSO (2%v/v) + 10% v/v Solutol in PBS (98% v/v)): 960 µg/mL
solubility ([2]; dose formulations with cosolvents, read-out: aqueous solubility with cosolvents): 1000 µg/mL (≈ 3.55 mM)
fraction unbound at 4 h, 2 µM ([3]; brain homogenate, pH 7.4, SD rat, 4 h): 0.029
recovery at 4 h, 2 µM ([3]; pH 7.4, SD rat brain homogenate): 86.8%
Brain binding, % bound ([3]; rat brain homogenate): 97.1%
half-life [4]: > 3.61 h
hepatocyte CLint [4]: < 6.4 µL/min/1e6 cells
Wnt response in the absence of Notum (Wnt signaling): maximal Wnt response at all concentrations tested
fraction unbound at 4 h, 2 µM ([5]; SD, rat, pH 7.4): 0.0552
fraction unbound at 4 h, 2 µM ([5]; SD, rat, pH 7.4, Plasma protein binding (PPB), % bound, rat plasma): 0.0552
recovery at 4 h, 2 µM ([5]; SD, rat, rat plasma, pH 7.4): 99.3%
Plasma protein binding (PPB), % bound ([5]; mouse plasma): 95.8%
recovery at 5 h, 10 µM ([5]; mouse, mouse plasma (K2EDTA), pH 7.4): 89.9%
Plasma protein binding (PPB), % bound ([5]; rat plasma): 94.5%
